Results reported in patent US20160257697A1, “THIOPHENE-SUBSTITUTED TETRACYCLIC COMPOUNDS AND METHODS OFUSE THEREOF FOR THE TREATMENT OF VIRAL DISEASES” (priority 2013, published 2016).
Read-outs that look alike come from different tables or passages of the source.

How the values were obtained:
Assay in all cases: microbe, parasite or virus in culture
Type in all cases: cell-based, Hepatitis C virus (HCV)
HCV replicon 1AY93H = conditions: Replicon Assay A
In short: (§1)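 Replicon cells were seeded at 2000 cells/well with test compound in 0.5% DMSO and 5% FBS, then harvested on day 3. Replicon RNA was measured by multiplex TaqMan real-time RT-PCR, using cyclophilin RNA as the endogenous control and quantified against standard curves of HCV replicon total RNA.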

HCV replicon 1A = conditions: Replicon Assay A
In short: as §1

HCV replicon 2B = conditions: Replicon Assay A
In short: as §1

HCV replicon 1AQ30D = conditions: Replicon Assay B
HCV replicon 1B = conditions: Replicon Assay B
[1] = read-out: 1A Y93H IC50, replicon 1AY93H
[2] = read-out: 1A Q30D IC50, replicon 1AQ30D
[3] = Hepatitis C virus, read-out: 1A Y93H IC50 (nM), replicon 1AY93H
[4] = Hepatitis C virus, read-out: 2B IC50 (nM), replicon 2B
[5] = Hepatitis C virus, read-out: 1A Q30D IC50 (nM), replicon 1AQ30D
[6] = read-out: 1A Y93H IC50, HCV replicon 1A Y93H
[7] = read-out: 2B IC50, HCV replicon 2B
[8] = read-out: 1A Q30D IC50, HCV replicon 1A Q30D

CCc1ccc(C2Oc3cc(-c4cnc([C@@H]5CCCN5C(=O)[C@@H](NC(=O)OC)C(C)C)[nH]4)cc(F)c3-c3cc4cc(-c5cnc([C@@H]6C[C@@H](F)CN6C(=O)C(NC(=O)OC)C6CCOC(C)(C)C6)[nH]5)ccc4n32)s1 (single isomer, unassigned) [Compound 258]
IC50 (HCV replicon 1AY93H; [1]): 0.004 nM | IC50 (HCV replicon 1A; replicon 1A): 1.8 pM | IC50 (HCV replicon 2B; read-out: 2B IC50, replicon 2B): 0.43 nM | IC50 (HCV replicon 1AQ30D; [2]): 1.2 nM | IC50 (HCV replicon 1B; Hepatitis C virus, replicon 1B): 2.7 pM

COC(=O)N[C@H](C(=O)N1CCC[C@H]1c1ncc(-c2cc(F)c3c(c2)OC(c2ccc(C4(C)CC4)s2)n2c-3cc3cc(-c4cnc([C@@H]5CCCN5C(=O)[C@@H](NC(=O)OC)C(C)C)[nH]4)ccc32)[nH]1)C(C)C (single isomer, unassigned) [Compound 836]
IC50 (HCV replicon 1AY93H; HCV replicon 1A Y93H, read-out: 1A Y93H IC50): 0.016 nM | IC50 (HCV replicon 1A; HCV replicon 1A): 2.1 pM | IC50 (HCV replicon 2B; HCV replicon 2B, read-out: 2B IC50): 0.06 nM | IC50 (HCV replicon 1AQ30D; HCV replicon 1A Q30D, read-out: 1A Q30D IC50): 0.297 nM | IC50 (HCV replicon 1B; HCV replicon 1B): 1.8 pM

CCc1ccc(C2Oc3cc(-c4cnc([C@@H]5CCCN5C(=O)[C@@H](NC(=O)OC)C(C)C)[nH]4)cc(F)c3-c3cc4cc(-c5cnc([C@@H]6CCCN6C(=O)[C@@H](NC(=O)OC)C6CCOCC6)[nH]5)ccc4n32)s1 (single isomer, unassigned) [Compound 336]
IC50 (HCV replicon 1AY93H; [1]): 0.062 nM | IC50 (HCV replicon 1A; Hepatitis C virus, replicon 1A): 2.2 pM | IC50 (HCV replicon 2B; read-out: 2B IC50, replicon 2B): 0.128 nM | IC50 (HCV replicon 1AQ30D; [2]): 1.5 nM | IC50 (HCV replicon 1B; Hepatitis C virus, replicon 1B): 1.1 pM

COC(=O)NC(C(=O)N1CCC[C@H]1c1ncc(-c2ccc3c(c2)cc2n3C(c3ccc(C4CC4)s3)Oc3cc(-c4cnc([C@@H]5CCCN5C(=O)[C@@H](NC(=O)OC)C(C)C)[nH]4)cc(F)c3-2)[nH]1)C1CCOC(C)(C)C1 (some centres unmarked) [Compound 218]
IC50 (HCV replicon 1AY93H; [3]): 0.004 nM | IC50 (HCV replicon 1A; Hepatitis C virus, replicon 1A): 2.6 pM | IC50 (HCV replicon 2B; [4]): 0.004 nM | IC50 (HCV replicon 1AQ30D; [5]): 0.055 nM | IC50 (HCV replicon 1B; Hepatitis C virus, replicon 1B): 3.1 pM

COC(=O)NC(C(=O)N1[C@@H]2C[C@@H]2C[C@H]1c1ncc(-c2ccc3c(c2)c(F)c2n3C(c3ccc(C4CC4)s3)Oc3cc(-c4cnc([C@@H]5CCCN5C(=O)[C@@H](NC(=O)OC)C(C)C)[nH]4)ccc3-2)[nH]1)C1C[C@@H](C)O[C@@H](C)C1 (single isomer, unassigned) [Compound 645]
IC50 (HCV replicon 1AY93H; [6]): 0.0222 nM | IC50 (HCV replicon 1A; HCV replicon 1A): 2.6 pM | IC50 (HCV replicon 2B; [7]): 0.0686 nM | IC50 (HCV replicon 1AQ30D; [8]): 0.25 nM | IC50 (HCV replicon 1B; HCV replicon 1B): 2.4 pM

COC(=O)NC(C(=O)N1CCC[C@H]1c1ncc(-c2ccc3c(c2)cc2n3C(c3ccc(CC4CC4)s3)Oc3cc(-c4cnc([C@@H]5CCCN5C(=O)[C@@H](NC(=O)OC)C(C)C)[nH]4)cc(F)c3-2)[nH]1)C1CCOC(C)(C)C1 (single isomer, unassigned) [Compound 408]
IC50 (HCV replicon 1AY93H; [6]): 0.004 nM | IC50 (HCV replicon 1A; HCV replicon 1A): 3.5 pM | IC50 (HCV replicon 2B; [7]): 0.005 nM | IC50 (HCV replicon 1AQ30D; [8]): 0.0261 nM | IC50 (HCV replicon 1B; HCV replicon 1B): 1.9 pM

CCc1ccc(C2Oc3cc(-c4cnc([C@@H]5CCCN5C(=O)[C@@H](NC(=O)OC)C(C)C)[nH]4)cc(F)c3-c3cc4cc(-c5cnc([C@@H]6CCCN6C(=O)[C@@H](NC(=O)OC)C(C)C)[nH]5)ccc4n32)s1 (single isomer, unassigned) [Compound 3]
IC50 (HCV replicon 1AY93H; [3]): 4.7 nM | IC50 (HCV replicon 1A; Hepatitis C virus, replicon 1A): 3.6 pM | IC50 (HCV replicon 2B; [4]): 4.45 nM | IC50 (HCV replicon 1AQ30D; [5]): 50.6 nM | IC50 (HCV replicon 1B; Hepatitis C virus, replicon 1B): 1.2 pM

COC(=O)NC(C(=O)N1CCC[C@H]1c1ncc(-c2ccc3c(c2)cc2n3C(c3cc4ccccc4s3)Oc3cc(-c4cnc([C@@H]5CCCN5C(=O)[C@@H](NC(=O)OC)C(C)C)[nH]4)cc(F)c3-2)[nH]1)C1C[C@@H](C)O[C@@H](C)C1 (single isomer, unassigned) [Compound 641]
IC50 (HCV replicon 1AY93H; [6]): 0.0079 nM | IC50 (HCV replicon 1A; HCV replicon 1A): 3.3 pM | IC50 (HCV replicon 2B; [7]): 0.0244 nM | IC50 (HCV replicon 1AQ30D; [8]): 0.306 nM | IC50 (HCV replicon 1B; HCV replicon 1B): 1.1 pM

COC(=O)N[C@H](C(=O)N1CCC[C@H]1c1ncc(-c2cc(C)c3c(c2)OC(c2ccc(C4CC4)s2)n2c-3cc3cc(-c4cnc([C@@H]5CCCN5C(=O)[C@@H](NC(=O)OC)C(C)C)[nH]4)ccc32)[nH]1)C(C)C (single isomer, unassigned) [Compound 753]
IC50 (HCV replicon 1AY93H; [6]): 0.06 nM | IC50 (HCV replicon 1A; HCV replicon 1A): 5.7 pM | IC50 (HCV replicon 2B; [7]): 0.023 nM | IC50 (HCV replicon 1AQ30D; [8]): 0.639 nM | IC50 (HCV replicon 1B; HCV replicon 1B): 2 pM

COC(=O)NC(C(=O)N1CCC[C@H]1c1ncc(-c2cc(F)c3c(c2)OC(c2ccc(C4CC4)s2)n2c-3cc3cc(-c4cnc([C@@H]5CCCN5C(=O)[C@@H](NC(=O)OC)C(C)C)[nH]4)ccc32)[nH]1)C1CCOC(C)(C)C1 (single isomer, unassigned) [Compound 215]
IC50 (HCV replicon 1AY93H; [1]): 0.005 nM | IC50 (HCV replicon 1A; replicon 1A): 3.1 pM | IC50 (HCV replicon 2B; read-out: 2B IC50, replicon 2B): 0.01 nM | IC50 (HCV replicon 1AQ30D; [2]): 0.017 nM | IC50 (HCV replicon 1B; replicon 1B): 3.2 pM
